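How tested: cells in 96-well plates exposed to compound for 48 hours at five concentrations. TGI: total growth inhibition.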
Assays:
Test in all cases: NCI anticancer screen, dose series, 48 h
HL-60(TB) leukemia = system: HL-60(TB) leukemia
TK-10 renal = system: TK-10 renal
SR leukemia = system: SR leukemia
COLO 205 colon = system: COLO 205 colon
UO-31 renal = system: UO-31 renal
LOX IMVI melanoma = system: LOX IMVI melanoma
786-0 renal = system: 786-0 renal
RXF 393 renal = system: RXF 393 renal
SK-MEL-28 melanoma = system: SK-MEL-28 melanoma
SK-OV-3 ovarian = system: SK-OV-3 ovarian

SMILES	TGI (HL-60(TB) leukemia) [µM]	TGI (TK-10 renal) [µM]	TGI (SR leukemia) [µM]	TGI (COLO 205 colon) [µM]	TGI (UO-31 renal) [µM]	TGI (LOX IMVI melanoma) [µM]	TGI (786-0 renal) [µM]	TGI (RXF 393 renal) [µM]	TGI (SK-MEL-28 melanoma) [µM]	TGI (SK-OV-3 ovarian) [µM]
Cc1c(C)c2c(c(N)c1C#N)C(=O)N(NC(=O)c1ccccc1)C2=O	> 100	> 100	> 100	> 100	> 100	> 100	> 100	> 100	> 100	
COc1cccc(C(=O)Oc2ccc(OS(=O)(=O)c3ccc(C)cc3)cc2)c1C#N	> 100	> 100	> 100	> 100	> 100	> 100	> 100	> 100	> 100	
CC1(C)OC(C(=O)Nc2cc3c4ccccc4ccc3c3ccccc23)C(C(=O)N2CCCCC2)O1 (stereo not given)	> 100	> 100		> 100	> 100	25.3	> 100	> 27.7	> 100	> 100
C=CCCON(C(=O)OC(C)(C)C)C(C)(C)C	> 100	> 100		> 100	> 100	> 100	> 100	> 100	> 100	> 100
CO/N=C(\C)c1ccc(Nc2nc3ccccc3c3occc23)cc1	50.4	25.4	58.6	28.1	35.9	32.1	27.2			29.5
O=c1oc2ccccc2cc1-c1cc2ccccn2c1	> 100	> 100		> 100	> 100	> 100	> 100	> 100	> 100	> 100
Cc1ccc(/C=N/Nc2cc(C)c3cccc(C)c3n2)s1		> 100	> 100	28.7	38.7	4.3	11	32.8	> 100	33.5
CCCC(=O)NC(NC1CCCCC1)(C(=O)OCC)C(F)(F)F (stereo not given)	> 100	> 100	> 100		> 100	> 100	> 100	> 100	> 100	> 100
CCN(CC)Cc1ccc(C(=S)Nc2ccc(Cl)cc2)s1	10.5		24.7	5.2	23.5	16.2	26.4		20.8	29.7
C/C=C/C(CC(O)(C(F)(F)F)C(F)(F)F)=N/NC(N)=S	> 10	> 10	> 10	> 10		> 10	> 10	> 10	> 10	> 10
N#Cc1n[nH]n(-c2ccc(Br)cc2)c1=O	> 100	> 100		> 100	> 100	> 100	> 100	> 100	> 100	> 100
O=C1COc2cccnc2N1CCCCO	> 100	> 100	> 100		> 100	> 100	> 100	> 100	> 100	> 100
CCCCCCNc1n[nH]c(=O)c2c1nnn2Cc1ccccc1	> 100	> 100	> 100	> 100	> 100	> 100	> 100		> 100	
CC(=O)N(C(C)=O)c1ncc(-n2nc(-c3ccccc3)cc2-c2ccccc2)c(-c2ccccc2)n1	> 10	> 10	> 10	> 10		> 10	> 10	> 10	> 10	> 10
CC(=O)OC(OC(C)=O)c1ccc2ccc3cccc4ccc1c2c34	> 100	21.4	> 100	58.4	44.6	36	> 100	25.3		53.4
Cc1ccc(-c2c(C#N)c(-c3ccc(C)cc3)n(NS(=O)(=O)c3ccccc3)c(=O)c2C#N)cc1		> 100		> 100		> 100	> 100	> 100	> 100	> 100
CC1(C)/C(=N\NC(N)=O)C2CCC1C2 (stereo not given)	> 100	> 100	> 100	> 100	> 100	> 100	> 100		> 100	> 100
CO[C@@]12C[C@@H](C)C3=CCC(C)=C3CC1=C(C)C(=O)O2	> 100	> 100	> 100	> 100	> 100	> 100	> 100		> 100	> 100
CCOC(=O)Nc1[nH]cc(-c2ccccc2)c1C#N	> 100	> 100	> 100	> 100	> 100	> 100	> 100		> 100	> 100
CC1(C)[C@@H](Cn2ccc(=O)[nH]c2=O)CC[C@@]1(C)CO		> 100		> 100	> 100	> 100	> 100	> 100	> 100	> 100
CCOC(=O)NC(Nc1ccc(C)cc1)(C(F)(F)F)C(F)(F)F	> 100	> 100		> 100	> 100	> 100	> 100		> 100	> 100
CC(=O)Nc1sc(Br)cc1S(=O)(=O)c1ccc(Cl)cc1	63.4	> 100	50.5		83.1		92.3	48.4	> 100	> 100
CN(CCSCCN(C)C(=O)OC(C)(C)C)C(=O)OC(C)(C)C		> 100	> 100	> 100	> 100	> 100	> 100		> 100	> 100
CC(=O)Nc1ccc(N=Nc2c(O)c(S(=O)(=O)O)cc3cc(S(=O)(=O)O)ccc23)cc1		> 100		> 100	> 100		> 100	> 100	> 100	> 100

Source: PubChem BioAssay (NCI)
